Laboratory results taken from publication PMC7175278, “2-Oxoester Phospholipase A2 Inhibitors with Enhanced Metabolic Stability” (Biomolecules, 2020).

Target: T1, GIVA cPLA2 (Homo sapiens, UniProt P47712)
T1 construct: gene PLA2G4A
T1 sequence (P47712 1-749): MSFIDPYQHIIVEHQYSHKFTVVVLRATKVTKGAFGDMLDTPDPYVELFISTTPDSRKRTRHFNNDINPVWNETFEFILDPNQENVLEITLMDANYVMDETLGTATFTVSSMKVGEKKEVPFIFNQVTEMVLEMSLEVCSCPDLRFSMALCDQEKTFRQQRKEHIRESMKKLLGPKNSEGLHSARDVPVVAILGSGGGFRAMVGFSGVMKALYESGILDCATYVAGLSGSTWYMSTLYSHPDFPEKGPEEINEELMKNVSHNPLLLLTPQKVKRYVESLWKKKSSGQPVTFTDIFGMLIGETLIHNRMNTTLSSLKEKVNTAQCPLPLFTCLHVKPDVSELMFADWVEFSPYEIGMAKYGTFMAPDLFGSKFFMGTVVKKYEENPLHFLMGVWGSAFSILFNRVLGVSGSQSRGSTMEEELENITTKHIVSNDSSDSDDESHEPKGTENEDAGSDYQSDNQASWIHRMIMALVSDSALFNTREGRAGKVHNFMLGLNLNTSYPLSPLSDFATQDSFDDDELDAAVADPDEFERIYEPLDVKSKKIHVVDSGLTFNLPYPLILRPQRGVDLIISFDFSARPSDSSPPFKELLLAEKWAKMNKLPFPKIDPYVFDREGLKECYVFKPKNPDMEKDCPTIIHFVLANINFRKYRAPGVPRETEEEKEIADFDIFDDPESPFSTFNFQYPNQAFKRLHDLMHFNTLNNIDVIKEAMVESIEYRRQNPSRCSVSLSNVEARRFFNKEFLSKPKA
Assay: LC/MS lipidomics-based mixed micelle assay with recombinant human enzyme, dose-response
Type: biochemical

Row | Compound | GIVA cPLA2 / XI(50)
1 | CC(CCCc1ccc(-c2ccccc2)cc1)C(=O)C(=O)OCCCCC(=O)O (centres unmarked) [17a, 5-((6-([1,1’-Biphenyl]-4-yl)-3-methyl-2-oxohexanoyl)oxy)pentanoic acid] | 0.00036 ± 0.00007 mole fraction (XI(50))
2 | CC(CCCC(=O)O)OC(=O)C(=O)CCCCc1ccc(-c2ccccc2)cc1 (centres unmarked) [17b, 5-((6-([1,1’-Biphenyl]-4-yl)-2-oxohexanoyl)oxy)hexanoic acid] | 0.0012 ± 0.00008 mole fraction (XI(50))
